Data published in patent US8822541B2, “Use of targeted nitroxide agents in mitigating or treating radiation injury” (University of Pittsburgh—Of the Commonwealth System of …, priority 2008, dated 2014).
Entries after “also recorded” stand apart in the source; their conditions may differ.

Experiments:
[1] = system: KM101 human marrow stromal cells; assay: Irradiation survival of KM101 marrow stromal cells; format: cell-based; conditions: 10 μM; for n (shoulder): control 1.1
Description: KM101 cells were incubated in media alone or in JP4-039 (10 μM) for one hour before irradiation or 24 hours after irradiation. The cells were irradiated to doses ranging from 0 to 6 Gy and plated in 4 well plates. Seven days later the cells were stained with crystal violet and colonies of greater than 50 cells counted. Cells incubated in JP4-039 either before or after irradiation were more radioresistant as shown by an increased shoulder of n=2.3±0.2 or 2.2±0.2, respectively compared to n of 1.1±0.1 for the KM101 cells (p=0.0309 or 0.0386, respectively).

[2] = system: Ercc1−/Δ mice; assay: Signs of aging in progeroid Ercc1−/Δ mice; format: in vivo, mouse; conditions: 2 mg/kg ip three times per week
Description: To assess the effectiveness of XJB-5-131 in inhibiting degeneration and/or signs of aging, the compound was administered, over an 18-21 week period, progeroid
Ercc1^−/Δ mice, at a dose of 2 mg/kg in sunflower oil carrier (to promote solubility) administered intraperitoneally three times per week (FIG. 32). Sunflower seed oil was administered to twin Ercc1^−/Δ mice according to the same schedule as a control. The treated and control mice were monitored twice a week for weight and symptom/sign development.
FIG. 33 presents a summary table showing the results of the treatment with XJB-5-131 (“XJB” in this Figure), relative to control (sunflower seed oil) after treatment from 5 wks of life until death. The numbers indicate the average age at onset of each age-related symptom for mice treated with XJB-5-131 or vehicle only (oil) (n=5 mice per group). […] Of note, all of the signs of neurodegeneration, including dystonia, trembling, ataxia, wasting and urinary incontinence were delayed in the treated animals, providing strong evidence that XJB-5-131 protects neurons against degenerative changes caused by oxidative stress.
To assess the ability of XJB-5-131 to inhibit deterioration of intervertebral discs (an index of degenerative disease of the vertebra), the level of glycosaminoglycan in the discs in treated and control mice were measured, and the results are shown in FIG. 34. The intervertebral discs of treated mice contained approximately 30 percent more glycosaminoglycan relative to control mice, indicating inhibition of disc degeneration.

| Compound | n (shoulder) ([1]; 24 hours after irradiation) | Do ([1]; before or after irradiation) | n (shoulder) ([1]; one hour before irradiation) | body weight [2] | glycosaminoglycan in intervertebral discs relative to control mice [2] | onset of signs of neurodegeneration (dystonia, trembling, ataxia, wasting, urinary incontinence) [2] | overall aging score [2] |
| --- | --- | --- | --- | --- | --- | --- | --- |
| CC(C)C[C@@H](/C=C/CC(=O)NC1CC(C)(C)N([O])C(C)(C)C1)NC(=O)OC(C)(C)C [JP4-039, TEMPO-4-yl-(S,E)-5-(tert-butoxycarbonylamino)-7-methyloct-3-enamide] | 2.2±0.2 | no significant change | 2.3±0.2 |  |  |  |  |
| CC(C)C[C@@H](/C=C/[C@H](Cc1ccccc1)C(=O)N1CCC[C@H]1C(=O)N[C@H](C(=O)N[C@@H](CCCNC(=O)OCc1ccccc1)C(=O)NC1CC(C)(C)N([O])C(C)(C)C1)C(C)C)NC(=O)OC(C)(C)C [XJB-5-131] |  |  |  | did not lose weight; also recorded: does not cause weight loss | approximately 30 percent more | delayed | significantly improved |
